According to patent US11679110B2, “Methods of treating disorders using CSF1R inhibitors” (Deciphera Pharmaceuticals, LLC, priority 2018, dated 2023):
Like-named read-outs stand apart in the source and are kept apart here.

Experiment: Plasma pharmacokinetics of Compound 1 in patients with advanced solid tumor malignancies and TGCT
Assay type: in vivo, human
Settings: for Cmax / AUC(0-t) / Tmax: human, plasma, oral; for Tmax: Median (Min, Max)
Description: PK analysis was conducted on all 38 patients. Serial blood samples were collected for PK and took place on either Day −7, Cycle 1, Day 1 (C1D1) and C2D1 at pre-dose, 0.5, 1, 2, 4, 6, 8, 10-12, and 24 hr time points or Day −7, C1D1, C1D8, and C2D1 at pre-dose, 1, 2, 4, 6, and 8 hr time points, or C1D1, C1D8, and C2D1 at pre-dose, 1, 2, 4, 6, and 8 hr time points. High fat meal was given prior to dosing of Compound 1 on Day −7. PD effects were measured by two methodologies: 1) depletion of CSF1R-expressing monocytes in peripheral blood (Cohorts 1-7) from C1D1, C1D15 and C2D1; and 2) increase of plasma levels of CSF1 and IL-34, the ligands for CSF1R (Cohorts 1-7) on C1D1, C1D15, and C2D1. For the CD16^+ monocyte assay, whole blood collected in an EDTA vacutainer was aliquoted into tubes and incubated with fluorescently-labeled antibodies (CD14-Alexa488 (BD Pharmingen); CD16-PE-Cy7 (BD Pharmingen); and TIE2-APC (R&D Systems). After incubation, red blood cells were lysed, and the remaining cells were washed several times before being analyzed on a flow cytometer. For the plasma CSF1 assay or IL-34, whole blood collected in an EDTA vacutainer was centrifuged, and the plasma was collected and frozen. Plasma levels of CSF1 or IL-34 were measured using a commercial ELISA kit (R&D Systems).
Cohort 1 had daily dosing.

## Cc1nc(-c2cnc(NC(C)C)n(C)c2=O)ccc1Oc1ccnc(-c2cnn(C)c2)c1 [Compound 1, 2-(isopropylamino)-3-methyl-5-(6-methyl-5-((2-(1-methyl-1H-pyrazol-4-yl)pyridin-4-yl)oxy)pyridin-2-yl)pyrimidin-4(3H)-one]
20 mg, Cohort 3 20 mg Weekly after 5-day QD loading dose, Day-7, GM (CV %)
  Cmax: 242 ng/mL
20 mg, Cohort 3 20 mg Weekly after 5-day QD loading dose, Day-7, GM (CV %), read-out: AUC0-8
  AUC(0-t): 1320 ng·h/mL
20 mg, Cohort 3 20 mg Weekly after 5-day QD loading dose, Day-7
  Tmax: 4 h
20 mg, Cohort 4 20 mg QD x 5 d, BIW maintenance dose, C1D1, Geo Mean
  Cmax: 268 ng/mL
20 mg, Cohort 4 20 mg QD x 5 d, BIW maintenance dose, C1D1, Geo Mean, read-out: AUC0-8 h
  AUC(0-t): 1610 ng·h/mL
20 mg, Cohort 4 20 mg QD x 5 d, BIW maintenance dose, C1D8, Geo Mean
  Cmax: 685 ng/mL
20 mg, Cohort 4 20 mg QD x 5 d, BIW maintenance dose, C1D8, Geo Mean, read-out: AUC0-8 h
  AUC(0-t): 4660 ng·h/mL
20 mg, Cohort 4 20 mg QD x 5 d, BIW maintenance dose, C2D1, Geo Mean
  Cmax: 642 ng/mL
20 mg, Cohort 4 20 mg QD x 5 d, BIW maintenance dose, C2D1, Geo Mean, read-out: AUC0-8 h
  AUC(0-t): 4300 ng·h/mL
20 mg, Cohort 4 20 mg QD x 5 d, BIW maintenance dose, Day -7, Geo Mean
  Cmax: 183 ng/mL
20 mg, Cohort 4 20 mg QD x 5 d, BIW maintenance dose, Day -7, Geo Mean, read-out: AUC0-8 h
  AUC(0-t): 1090 ng·h/mL
20 mg, Cohort 4 20 mg Twice Weekly after 5-day QD loading dose, C1D1, GM (CV %)
  Cmax: 268 ng/mL
20 mg, Cohort 4 20 mg Twice Weekly after 5-day QD loading dose, C1D1, GM (CV %), read-out: AUC0-8
  AUC(0-t): 1610 ng·h/mL
20 mg, Cohort 4 20 mg Twice Weekly after 5-day QD loading dose, C1D1
  Tmax: 0.75 h
20 mg, Cohort 4 20 mg Twice Weekly after 5-day QD loading dose, C1D8, GM (CV %)
  Cmax: 685 ng/mL
20 mg, Cohort 4 20 mg Twice Weekly after 5-day QD loading dose, C1D8, GM (CV %), read-out: AUC0-8
  AUC(0-t): 4660 ng·h/mL
20 mg, Cohort 4 20 mg Twice Weekly after 5-day QD loading dose, C1D8
  Tmax: 2.25 h
20 mg, Cohort 4 20 mg Twice Weekly after 5-day QD loading dose, C2D1, GM (CV %)
  Cmax: 642 ng/mL
20 mg, Cohort 4 20 mg Twice Weekly after 5-day QD loading dose, C2D1, GM (CV %), read-out: AUC0-8
  AUC(0-t): 4300 ng·h/mL
20 mg, Cohort 4 20 mg Twice Weekly after 5-day QD loading dose, C2D1
  Tmax: 0.5 h
20 mg, Cohort 4 20 mg Twice Weekly after 5-day QD loading dose, Day-7, GM (CV %)
  Cmax: 183 ng/mL
20 mg, Cohort 4 20 mg Twice Weekly after 5-day QD loading dose, Day-7, GM (CV %), read-out: AUC0-8
  AUC(0-t): 1090 ng·h/mL
20 mg, Cohort 4 20 mg Twice Weekly after 5-day QD loading dose, Day-7
  Tmax: 4 h
20 mg, Cohort 7 20 mg QD after 3-day 50 mg QD loading dose, C2D1, GM (CV %), read-out: AUC0-8
  AUC(0-t): 7980 ng·h/mL
30 mg, Cohort 5 30 mg QD x 5 d, BIW maintenance dose, C1D1, Geo Mean
  Cmax: 600 ng/mL
30 mg, Cohort 5 30 mg QD x 5 d, BIW maintenance dose, C1D1, Geo Mean, read-out: AUC0-8 h
  AUC(0-t): 3390 ng·h/mL
30 mg, Cohort 5 30 mg QD x 5 d, BIW maintenance dose, C1D8, Geo Mean
  Cmax: 1400 ng/mL
30 mg, Cohort 5 30 mg QD x 5 d, BIW maintenance dose, C1D8, Geo Mean, read-out: AUC0-8 h
  AUC(0-t): 8800 ng·h/mL
30 mg, Cohort 5 30 mg QD x 5 d, BIW maintenance dose, C2D1, Geo Mean
  Cmax: 953 ng/mL
30 mg, Cohort 5 30 mg QD x 5 d, BIW maintenance dose, C2D1, Geo Mean, read-out: AUC0-8 h
  AUC(0-t): 5420 ng·h/mL
30 mg, Cohort 5 30 mg QD x 5 d, BIW maintenance dose, Day -7, Geo Mean
  Cmax: 278 ng/mL
30 mg, Cohort 5 30 mg QD x 5 d, BIW maintenance dose, Day -7, Geo Mean, read-out: AUC0-8 h
  AUC(0-t): 1390 ng·h/mL
30 mg, Cohort 5 30 mg Twice Weekly after 5-day QD loading dose, C1D1, GM (CV %)
  Cmax: 422 ng/mL
30 mg, Cohort 5 30 mg Twice Weekly after 5-day QD loading dose, C1D1, GM (CV %), read-out: AUC0-8
  AUC(0-t): 2250 ng·h/mL
30 mg, Cohort 5 30 mg Twice Weekly after 5-day QD loading dose, C1D1
  Tmax: 1 h
30 mg, Cohort 5 30 mg Twice Weekly after 5-day QD loading dose, C1D8, GM (CV %)
  Cmax: 1160 ng/mL
30 mg, Cohort 5 30 mg Twice Weekly after 5-day QD loading dose, C1D8, GM (CV %), read-out: AUC0-8
  AUC(0-t): 7160 ng·h/mL
30 mg, Cohort 5 30 mg Twice Weekly after 5-day QD loading dose, C1D8
  Tmax: 1 h
30 mg, Cohort 5 30 mg Twice Weekly after 5-day QD loading dose, C2D1, GM (CV %)
  Cmax: 822 ng/mL
30 mg, Cohort 5 30 mg Twice Weekly after 5-day QD loading dose, C2D1, GM (CV %), read-out: AUC0-8
  AUC(0-t): 5420 ng·h/mL
30 mg, Cohort 5 30 mg Twice Weekly after 5-day QD loading dose, C2D1
  Tmax: 1.5 h
30 mg, Cohort 5 30 mg Twice Weekly after 5-day QD loading dose, Day-7, GM (CV %)
  Cmax: 278 ng/mL
30 mg, Cohort 5 30 mg Twice Weekly after 5-day QD loading dose, Day-7, GM (CV %), read-out: AUC0-8
  AUC(0-t): 1390 ng·h/mL
30 mg, Cohort 6 30 mg QD x 5 d, BIW maintenance dose (so in the source), C2D1, Geo Mean
  Cmax: 1150 ng/mL
30 mg, Cohort 6 30 mg QD x 5 d, BIW maintenance dose (so in the source), C2D1, Geo Mean, read-out: AUC0-8 h
  AUC(0-t): 7290 ng·h/mL
40 mg, Cohort 6 40 mg Twice Weekly after 5-day QD loading dose, C1D1, GM (CV %)
  Cmax: 830 ng/mL
40 mg, Cohort 6 40 mg Twice Weekly after 5-day QD loading dose, C1D1, GM (CV %), read-out: AUC0-8
  AUC(0-t): 4790 ng·h/mL
40 mg, Cohort 6 40 mg Twice Weekly after 5-day QD loading dose, C1D8, GM (CV %)
  Cmax: 1860 ng/mL
40 mg, Cohort 6 40 mg Twice Weekly after 5-day QD loading dose, C1D8, GM (CV %), read-out: AUC0-8
  AUC(0-t): 12000 ng·h/mL
40 mg, Cohort 6 40 mg Twice Weekly after 5-day QD loading dose, C1D8
  Tmax: 1 h
40 mg, Cohort 6 40 mg Twice Weekly after 5-day QD loading dose, C2D1, GM (CV %)
  Cmax: 1150 ng/mL
40 mg, Cohort 6 40 mg Twice Weekly after 5-day QD loading dose, C2D1, GM (CV %), read-out: AUC0-8
  AUC(0-t): 7290 ng·h/mL
40 mg, Cohort 6 40 mg Twice Weekly after 5-day QD loading dose, C2D1
  Tmax: 1 h
40 mg, Cohort 6 40 mg Twice Weekly after 5-day QD loading dose, Day-7, GM (CV %)
  Cmax: 454 ng/mL
40 mg, Cohort 6 40 mg Twice Weekly after 5-day QD loading dose, Day-7, GM (CV %), read-out: AUC0-8
  AUC(0-t): 2250 ng·h/mL
40 mg, Cohort 6 40 mg Twice Weekly after 5-day QD loading dose, Day-7
  Tmax: 4 h
50 mg, Cohort 7 50 mg QD x 3 d, QD maintenance dose, C2D1, Geo Mean
  Cmax: 1250 ng/mL
50 mg, Cohort 7 50 mg QD x 3 d, QD maintenance dose, C2D1, Geo Mean, read-out: AUC0-8 h
  AUC(0-t): 7980 ng·h/mL
Cohort 7 20 mg QD after 3-day 50 mg QD loading dose, C1D1, GM (CV %)
  Cmax: 440 ng/mL
Cohort 7 20 mg QD after 3-day 50 mg QD loading dose, C1D1, GM (CV %), read-out: AUC0-8
  AUC(0-t): 2310 ng·h/mL
Cohort 7 20 mg QD after 3-day 50 mg QD loading dose, C1D8, GM (CV %)
  Cmax: 1010 ng/mL
Cohort 7 20 mg QD after 3-day 50 mg QD loading dose, C1D8, GM (CV %), read-out: AUC0-8
  AUC(0-t): 6740 ng·h/mL
Cohort 7 20 mg QD after 3-day 50 mg QD loading dose, C2D1, GM (CV %)
  Cmax: 840 ng/mL
Cohort 7 20 mg QD after 3-day 50 mg QD loading dose, Day-7, GM (CV %)
  Cmax: 272 ng/mL
Cohort 7 20 mg QD after 3-day 50 mg QD loading dose, Day-7, GM (CV %), read-out: AUC0-8
  AUC(0-t): 800 ng·h/mL
Cohort 7 20 mg QD after 3-day 50 mg QD loading dose, Day-7
  Tmax: 5 h
patients, dose cohorts 1 to 7, no accurate estimation
  half-life: long half-life
